The text below walks through data of ChEMBL document CHEMBL4052802, “Design, synthesis and biological evaluation of novel 3-oxo-4-oxa-5α-androst-17β-amide derivatives as dual 5α-reductase inhibitors and androgen receptor antagonists” (Bioorg Med Chem Lett, 2017).

For data set [1], the system named is Plasma. Kind of data set: Retention time in Sprague-Dawley rat plasma at 0.2 mg/kg, po measured after 24 hrs by total ion chromatographic method. It counts as ADME, organism-based. As to conditions: in vivo; call rule not given here.
Data set [2] can be described thus: Selectivity ratio of IC50 for human PC3 cells to IC50 for human LNCAP cells. It counts as functional.
Data set [3] has as its system Plasma. Kind of data set: Drug uptake in Sprague-Dawley rat plasma at 0.2 mg/kg, po after 6 hrs by LC-MS/MS analysis. It counts as ADME, organism-based. Conditions: in vivo.
Data set [4] concerns LNCaP. Briefly: Growth inhibition of human LNCAP cells at 80 uM after 48 hrs by MTT assay relative to control. As to conditions: read-out: GI. It counts as functional. (Tetrazolium assays rely on reduction of a dye to a coloured formazan, in cell work by metabolically active cells.)
The nature of data set [5]: Inhibition of rat liver 5alpha-reductase using testosterone as substrate incubated for 30 mins measured for 10 mins by fluorescence assay.
The subject of data set [6] is PC-3. Kind of data set: Growth inhibition of human PC3 cells at 80 uM after 48 hrs by MTT assay relative to control. It counts as functional. Conditions: PC-3, 48 h, read-out: GI.
Data set [7] in a line: Tmax in Sprague-Dawley rat at 0.2 mg/kg, po by LC-MS/MS analysis. It counts as ADME, organism-based. Conditions: in vivo.
The species entered for another data set is Rattus norvegicus. Kind of data set: Inhibition of rat liver 5alpha-reductase at 50 uM using testosterone as substrate incubated for 30 mins measured for 10 mins by fluorescence assay relative to control.
Data set [8] in a line: AUC (0 to t) in Sprague-Dawley rat at 0.2 mg/kg, po by LC-MS/MS analysis. It counts as ADME, organism-based. Conditions: in vivo.
The target of the next data set is T1, Androgen receptor (Rattus norvegicus, UniProt P15207).
T1 sequence (P15207 whole entry): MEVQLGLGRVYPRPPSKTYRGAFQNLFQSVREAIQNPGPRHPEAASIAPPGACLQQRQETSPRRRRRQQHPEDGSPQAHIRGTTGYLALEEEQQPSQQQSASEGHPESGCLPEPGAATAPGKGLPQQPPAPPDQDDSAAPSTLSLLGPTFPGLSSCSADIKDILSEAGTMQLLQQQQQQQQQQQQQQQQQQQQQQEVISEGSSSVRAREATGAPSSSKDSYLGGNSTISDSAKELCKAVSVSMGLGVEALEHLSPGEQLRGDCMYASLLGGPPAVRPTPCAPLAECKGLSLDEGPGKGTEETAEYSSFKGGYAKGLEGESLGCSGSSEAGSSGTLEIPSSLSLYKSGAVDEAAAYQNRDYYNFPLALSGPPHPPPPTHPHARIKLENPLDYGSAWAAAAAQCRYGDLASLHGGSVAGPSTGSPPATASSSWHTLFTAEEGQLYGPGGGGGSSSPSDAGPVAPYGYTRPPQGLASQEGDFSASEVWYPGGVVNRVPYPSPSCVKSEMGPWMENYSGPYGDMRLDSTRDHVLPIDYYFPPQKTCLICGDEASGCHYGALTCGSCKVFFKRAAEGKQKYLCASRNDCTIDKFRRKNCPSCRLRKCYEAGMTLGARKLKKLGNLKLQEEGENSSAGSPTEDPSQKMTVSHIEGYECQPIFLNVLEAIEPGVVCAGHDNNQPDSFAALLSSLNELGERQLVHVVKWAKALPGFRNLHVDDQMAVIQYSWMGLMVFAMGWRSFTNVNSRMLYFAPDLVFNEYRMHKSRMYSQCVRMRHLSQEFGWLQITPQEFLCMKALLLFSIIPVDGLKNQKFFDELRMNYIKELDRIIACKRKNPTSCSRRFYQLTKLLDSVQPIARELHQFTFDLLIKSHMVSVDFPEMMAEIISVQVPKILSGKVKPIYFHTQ
Briefly: Displacement of fluormone-AL Green from recombinant rat His-tagged/GST-fused androgen receptor LBD expressed in baculovirus expression system measured after 1.5 hrs by fluorescence polarization assay. A general note: In fluorescence polarisation assays a small probe gives low polarisation when free and higher when bound to something large.

A short description of data set [9]: Cmax in Sprague-Dawley rat at 0.2 mg/kg, po by LC-MS/MS analysis. Conditions: in vivo. It counts as ADME, organism-based. Further details: dose 0.2 mg/kg, route oral.
The subject of data set [10] is LNCaP. Briefly: Cytotoxicity against human LNCAP cells after 48 hrs by MTT assay. It counts as functional, cell-based.
Data set [11] is described as follows: AUC (0 to infinity) in Sprague-Dawley rat at 0.2 mg/kg, po by LC-MS/MS analysis. It counts as ADME, organism-based. Further details: dose 0.2 mg/kg, route oral, time infinity. As to conditions: in vivo.
The test system of data set [12] is PC-3. Briefly: Cytotoxicity against human PC3 cells after 48 hrs by MTT assay. As to conditions: PC-3, 48 h. It counts as functional, cell-based.
Data set [13] can be described thus: Elimination half-life in Sprague-Dawley rat at 0.2 mg/kg, po by LC-MS/MS analysis. It counts as ADME, organism-based. Conditions: in vivo, read-out: beta t1/2 (converted).
Data set [14] addresses Androgen receptor (Homo sapiens) (UniProt P10275). Kind of data set: Inhibition of recombinant human His-tagged/GST-fused androgen receptor LBD expressed in baculovirus expression system at 50 uM measured after 1.5 hrs by fluorescence polarization assay relative to control.

One may read the IC50 as the point on the concentration scale where inhibition reaches its midpoint. Usually Tmax stands for the time at which the peak concentration occurs. For orientation: inhibition means the change of the read-out against control, counted positive when it falls. What is called AUC(0-t) is exposure summed from dosing to a finite time, without extrapolation to infinity. Lower therefore signals less exposure. As a reminder, the Cmax is the maximum level reached in the sampled fluid or tissue. The AUC(0-inf) is total exposure, with the tail of the curve extrapolated. Low values mean low exposure, high ones high exposure. As to `Cc1ccc(NC(=O)[C@H]2CC[C@H]3[C@@H]4CC[C@H]5OC(=O)CC[C@]5(C)[C@H]4CC[C@]23C)cc1`, the Retention_time in the data set with Plasma [1] is listed as 3.6 min. In data set [2], the “Ratio IC50” value is 4. Also, the Drug uptake entry with Plasma [3] is “Not Active”. The inhibition of growth at 80 µM with LNCaP [4] worked out at 82.3%; in the data set on PC-3 [6], 18.1%. Also, the IC50 amounted to 0.27 µM in data set [5], 47.6 µM on Androgen receptor, 26.5 µM in the data set on LNCaP [10] and 114 µM in the data set on PC-3 [12]. In [7], the Tmax is 3.83 h. Besides, the values for the inhibition (in the data set listed under Rattus norvegicus; in data set [14]) were 98.5% and 55.5%, respectively. This compound also had an AUC(0-t) in data set [8] of 52.5 ng·h/mL. The compound further came in with a Cmax in [9] of 6.89 ng/mL. The compound further had an AUC(0-inf) in data set [11] of 54.1 ng·h/mL. For the same compound, the half-life in data set [13] is 4.74 h.
